Species: Rattus norvegicus
Test: DrugMatrix - Regimen: Daily Repeat
Format: toxicity, organism-based, Sprague-Dawley
Parameters: regimen Daily Repeat, gender Male, age 6-8 weeks
Conditions: in vivo, po, route oral GAVAGE, vehicle 100 % WATER; for ABSOLUTE BASOPHIL / ABSOLUTE EOSINOPHIL / ABSOLUTE LYMPHOCYTE / ABSOLUTE MONOCYTE / ABSOLUTE SEGMENTED NEUTROPHIL / BASOPHIL / EOSINOPHIL / ERYTHROCYTE COUNT / HEMATOCRIT / HEMOGLOBIN / LEUKOCYTE COUNT / LYMPHOCYTE / MEAN CORPUSCULAR HEMOGLOBIN / MEAN CORPUSCULAR HEMOGLOBIN CONCENTRATION / MEAN CORPUSCULAR VOLUME / MONOCYTE / NEUTROPHIL / NUCLEATED RED BLOOD CELLS / PLATELET COUNT: tissue Blood; for ALANINE AMINOTRANSFERASE / ALBUMIN / ALKALINE PHOSPHATASE / ASPARTATE AMINOTRANSFERASE / BLOOD UREA NITROGEN / CARBON DIOXIDE / CHLORIDE / CHOLESTEROL / CREATINE PHOSPHOKINASE / CREATININE / GLUCOSE / LACTATE DEHYDROGENASE / LIPASE / PHOSPHORUS / POTASSIUM / SODIUM / TOTAL BILIRUBIN / TOTAL PROTEIN / URIC ACID: tissue Plasma
[1] = 0 mg/kg, 72 h, dose level Control, time 3 day
[2] = 0 mg/kg, 120 h, dose level Control, time 5 day
[3] = 20 mg/kg, 72 h, dose level Low, time 3 day

CN(C)CCC=C1c2ccccc2CCc2ccccc21 [AMITRIPTYLINE]
ABSOLUTE BASOPHIL [1]: 0 CELLS/uL
ABSOLUTE EOSINOPHIL [1]: 58.83 CELLS/uL
ABSOLUTE LYMPHOCYTE [1]: 11823.5 CELLS/uL
ABSOLUTE MONOCYTE [1]: 169 CELLS/uL
ABSOLUTE SEGMENTED NEUTROPHIL [1]: 815.33 CELLS/uL
BASOPHIL [1]: 0%
EOSINOPHIL [1]: 0.5%
ERYTHROCYTE COUNT [1]: 5.52 x10E6/uL
HEMATOCRIT [1]: 35.77%
HEMOGLOBIN [1]: 14.28 G/DL
LEUKOCYTE COUNT [1]: 12.87 x10E3/uL
LYMPHOCYTE [1]: 91.67%
MEAN CORPUSCULAR HEMOGLOBIN [1]: 25.92 pg
MEAN CORPUSCULAR HEMOGLOBIN CONCENTRATION [1]: 39.95 G/DL
MEAN CORPUSCULAR VOLUME [1]: 64.85 fL
MONOCYTE [1]: 1.33%
NEUTROPHIL [1]: 6.5%
NUCLEATED RED BLOOD CELLS [1]: 0 /100WBC
PLATELET COUNT [1]: 1246.17 x10E3/uL
ALANINE AMINOTRANSFERASE [1]: 66 u/L
ALBUMIN [1]: 4.25 G/DL
ALKALINE PHOSPHATASE [1]: 416 u/L
ASPARTATE AMINOTRANSFERASE [1]: 106.17 u/L
BLOOD UREA NITROGEN [1]: 12.67 mg/dL
CARBON DIOXIDE [1]: 31.83 mmol/L
CHLORIDE [1]: 102.5 MEQ/L
CHOLESTEROL [1]: 69 mg/dL
CREATINE PHOSPHOKINASE [1]: 601.83 u/L
CREATININE [1]: 0.18 mg/dL
GLUCOSE [1]: 154.5 mg/dL
LACTATE DEHYDROGENASE [1]: 301.83 u/L
LIPASE [1]: 11.17 u/L
PHOSPHORUS [1]: 12.08 mg/dL
POTASSIUM [1]: 6.12 MEQ/L
SODIUM [1]: 145.2 MEQ/L
TOTAL BILIRUBIN [1]: 0.17 mg/dL
TOTAL PROTEIN [1]: 6.1 G/DL
URIC ACID [1]: 1.57 mg/dL
ABSOLUTE BASOPHIL [2]: 0 CELLS/uL
ABSOLUTE EOSINOPHIL [2]: 19.33 CELLS/uL
ABSOLUTE LYMPHOCYTE [2]: 12577.83 CELLS/uL
ABSOLUTE MONOCYTE [2]: 106.33 CELLS/uL
ABSOLUTE SEGMENTED NEUTROPHIL [2]: 896.5 CELLS/uL
BASOPHIL [2]: 0%
EOSINOPHIL [2]: 0.17%
ERYTHROCYTE COUNT [2]: 5.84 x10E6/uL
HEMATOCRIT [2]: 36.88%
HEMOGLOBIN [2]: 14.48 G/DL
LEUKOCYTE COUNT [2]: 13.6 x10E3/uL
LYMPHOCYTE [2]: 92.17%
MEAN CORPUSCULAR HEMOGLOBIN [2]: 24.85 pg
MEAN CORPUSCULAR HEMOGLOBIN CONCENTRATION [2]: 39.3 G/DL
MEAN CORPUSCULAR VOLUME [2]: 63.23 fL
MONOCYTE [2]: 0.83%
NEUTROPHIL [2]: 6.83%
NUCLEATED RED BLOOD CELLS [2]: 0 /100WBC
PLATELET COUNT [2]: 1223.5 x10E3/uL
ALANINE AMINOTRANSFERASE [2]: 55.33 u/L
ALBUMIN [2]: 4.08 G/DL
ALKALINE PHOSPHATASE [2]: 355.5 u/L
ASPARTATE AMINOTRANSFERASE [2]: 87.67 u/L
BLOOD UREA NITROGEN [2]: 15.33 mg/dL
CARBON DIOXIDE [2]: 33.83 mmol/L
CHLORIDE [2]: 99.67 MEQ/L
CHOLESTEROL [2]: 72.17 mg/dL
CREATINE PHOSPHOKINASE [2]: 268.33 u/L
CREATININE [2]: 0.15 mg/dL
GLUCOSE [2]: 152.5 mg/dL
LACTATE DEHYDROGENASE [2]: 212.67 u/L
LIPASE [2]: 10.83 u/L
PHOSPHORUS [2]: 11.65 mg/dL
POTASSIUM [2]: 6.73 MEQ/L
SODIUM [2]: 142.43 MEQ/L
TOTAL BILIRUBIN [2]: 0.23 mg/dL
TOTAL PROTEIN [2]: 6.07 G/DL
URIC ACID [2]: 1.7 mg/dL
ABSOLUTE BASOPHIL [3]: 0 CELLS/uL
ABSOLUTE EOSINOPHIL [3]: 43.67 CELLS/uL
ABSOLUTE LYMPHOCYTE [3]: 12245.67 CELLS/uL
ABSOLUTE MONOCYTE [3]: 111.33 CELLS/uL
ABSOLUTE SEGMENTED NEUTROPHIL [3]: 1432.67 CELLS/uL
BASOPHIL [3]: 0%
EOSINOPHIL [3]: 0.33%
ERYTHROCYTE COUNT [3]: 5.6 x10E6/uL
HEMATOCRIT [3]: 36.3%
HEMOGLOBIN [3]: 14.5 G/DL
LEUKOCYTE COUNT [3]: 13.83 x10E3/uL
LYMPHOCYTE [3]: 88.33%
MEAN CORPUSCULAR HEMOGLOBIN [3]: 25.93 pg
MEAN CORPUSCULAR HEMOGLOBIN CONCENTRATION [3]: 39.97 G/DL
MEAN CORPUSCULAR VOLUME [3]: 64.87 fL
MONOCYTE [3]: 0.67%
NEUTROPHIL [3]: 10.67%
NUCLEATED RED BLOOD CELLS [3]: 0 /100WBC
PLATELET COUNT [3]: 1222 x10E3/uL
ALANINE AMINOTRANSFERASE [3]: 53 u/L
ALBUMIN [3]: 4.33 G/DL
ALKALINE PHOSPHATASE [3]: 377.33 u/L
ASPARTATE AMINOTRANSFERASE [3]: 92 u/L
BLOOD UREA NITROGEN [3]: 14.67 mg/dL
CARBON DIOXIDE [3]: 31.33 mmol/L
CHLORIDE [3]: 103 MEQ/L
CHOLESTEROL [3]: 67.33 mg/dL
CREATINE PHOSPHOKINASE [3]: 466 u/L
CREATININE [3]: 0.22 mg/dL
GLUCOSE [3]: 137.33 mg/dL
LACTATE DEHYDROGENASE [3]: 318.67 u/L
LIPASE [3]: 12.67 u/L
PHOSPHORUS [3]: 11.77 mg/dL
POTASSIUM [3]: 6.47 MEQ/L
SODIUM [3]: 145.83 MEQ/L
TOTAL BILIRUBIN [3]: 0.2 mg/dL
TOTAL PROTEIN [3]: 6.03 G/DL
URIC ACID [3]: 1.5 mg/dL

— ChEMBL document CHEMBL3885881, “DrugMatrix”
